Our source for the IC50 values is patent US7211576B2, “Diaminothiazoles” (Hoffmann-La Roche Inc., priority 2004, dated 2007).

Where two headings read alike, the source gives them in different places.

Common to all, as to type: biochemical
The target of one test is human cyclin B-CDK1 (Homo sapiens, UniProt P06493). Nature of the test: FlashPlate kinase assay, cyclin B-CDK1. Particulars: Rb protein substrate, 1 μM ATP, 33P-ATP, 30 minutes room temperature. Here is the method:
(§1) To determine inhibition of Cdk4, Cdk2 and Cdk1 activity, kinase assays were conducted using FlashPlate™ assays (NEN™-Life Science Products). FlashPlate assays were performed using recombinant human cyclin B-CDK1, human cyclin E-CDK2 or human cyclin D1-CDK4 complexes. GST-cyclinE (GST-cycE), CDK2, GST-cyclinB (GST-cycB), CDK1, GST-CDK4 and cyclin D1 (cycD1) cDNA clones in baculovirus vectors were provided by Dr. W. Harper at the Baylor College of Medicine, Houston, Tex. Proteins were co-expressed in High Five™ insect cells and the complex was purified on glutathione Sepharose resin (Pharmacia, Piscataway, N.J.) as previously described (Harper, J. W. et al. Cell 1993, 75, 805–816). A 6×-Histidine tagged truncated form of retinoblastoma (Rb) protein (amino acid 386–928) was used as the substrate for the cycD1-CDK4, cycB-CDK1 and the cycE-CDK2 assays (the expression plasmid was provided by Dr. Veronica Sullivan, Department of Molecular Virology, Roche Research Centre, Welwyn Garden City, United Kingdom). The Rb protein is a natural substrate for phosphorylation by CDK4, CDK2 and CDK1 (see Herwig and Strauss Eur. J. Biochem. Vol. 246 (1997) pp. 581–601 and the references cited therein).
(§2) The expression of the 62Kd protein was under the control of an IPTG inducible promoter in an M15 E. coli strain. Cells were lysed by sonication and purification was carried out by binding lysates at pH 8.0 to a Ni-chelated agarose column pretreated with 1 mM imidazole. The resin was then washed several times with incrementally decreasing pH buffers to pH 6.0, and eluted with 500 mM imidazole. Eluted protein was dialysed against 20 mM HEPES pH 7.5, 30% glycerol, 200 mM NaCl, and 1 mM DTT. Purified Rb fusion protein stocks were quantitated for protein concentration, aliquoted, and stored at −70° C.
(§3) For all three kinase assays reported herein, 96-well FlashPlates were coated with Rb protein at 10 μg/ml, using 100 μl per well. Plates were incubated at 4° C. overnight or at room temperature for 3 hours on a shaker. To control for nonspecific phosphorylation, one row of wells was coated with 100 μl/well coating buffer (20 mM HEPES, 0.2 M NaCl). Plates were then washed twice with wash buffer (0.01% Tween 20 in phosphate-buffered saline). Compounds to be tested (“test compounds”) were added to the wells at 5× final concentration. Reactions were initiated by immediate addition of 40 μl reaction mix (25 mM HEPES, 20 mM MgCl2, 0.002% Tween 20, 2 mM DTT, 1 μM ATP, 4 nM ^33P-ATP) and a sufficient amount of enzyme to give counts that were at least 10-fold above background. Plates were incubated at room temperature on a shaker for 30 minutes. Plates were washed four times with the wash buffer, sealed, and counted on the TopCount scintillation counter (Packard Instrument Co., Downers Grove, Ill.]. The percent inhibition of Rb phosphorylation, which is a measure of the inhibition of CDK activity, was determined according to the following formula:
(§4) [formula] where “test compound” refers to the average counts per minute of the test duplicates, “nonspecific” refers to the average counts per minute when no CyclinD/Cdk4, etc., was added, and “total” refers to the average counts per minute when no compound was added. The IC50 value is the concentration of test compound that reduces by 50% the protein-kinase induced incorporation of the radiolabel under the test conditions described.

For another test, the target named is human cyclin D1-CDK4 (Homo sapiens, UniProt P11802). Nature of the test: FlashPlate kinase assay, cyclin D1-CDK4. Here is the method:
To determine inhibition of Cdk4, Cdk2 and Cdk1 activity, kinase assays were conducted using FlashPlate™ assays (NEN™-Life Science Products). FlashPlate assays were performed using recombinant human cyclin B-CDK1, human cyclin E-CDK2 or human cyclin D1-CDK4 complexes. GST-cyclinE (GST-cycE), CDK2, GST-cyclinB (GST-cycB), CDK1, GST-CDK4 and cyclin D1 (cycD1) cDNA clones in baculovirus vectors were provided by Dr. W. Harper at the Baylor College of Medicine, Houston, Tex.
as §2, §3
[formula] where “test compound” refers to the average counts per minute of the test duplicates, “nonspecific” refers to the average counts per minute when no CyclinD/Cdk4, etc., was added, and “total” refers to the average counts per minute when no compound was added.

For another test, the target named is human cyclin E-CDK2 (Homo sapiens, UniProt P24941). Nature of the test: FlashPlate kinase assay, cyclin E-CDK2. The conditions noted are these: Rb protein substrate, 1 μM ATP, 33P-ATP, 30 minutes room temperature. The protocol: as §1, §2, §3, §4
[1] abbreviates: Rb protein substrate, 1 μM ATP, 33P-ATP, 30 minutes room temperature, read-out: CDK4 IC50.

human cyclin D1-CDK4, sequence (P11802 whole entry): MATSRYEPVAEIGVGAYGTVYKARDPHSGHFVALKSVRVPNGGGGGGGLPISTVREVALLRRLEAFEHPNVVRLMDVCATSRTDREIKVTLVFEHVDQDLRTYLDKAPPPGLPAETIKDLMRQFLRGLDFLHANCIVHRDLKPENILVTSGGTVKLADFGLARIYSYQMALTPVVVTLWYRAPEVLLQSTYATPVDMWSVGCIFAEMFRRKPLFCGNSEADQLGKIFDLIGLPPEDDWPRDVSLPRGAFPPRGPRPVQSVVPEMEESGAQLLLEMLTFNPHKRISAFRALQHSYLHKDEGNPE
human cyclin D1-CDK4, sequence (P24385 whole entry partner): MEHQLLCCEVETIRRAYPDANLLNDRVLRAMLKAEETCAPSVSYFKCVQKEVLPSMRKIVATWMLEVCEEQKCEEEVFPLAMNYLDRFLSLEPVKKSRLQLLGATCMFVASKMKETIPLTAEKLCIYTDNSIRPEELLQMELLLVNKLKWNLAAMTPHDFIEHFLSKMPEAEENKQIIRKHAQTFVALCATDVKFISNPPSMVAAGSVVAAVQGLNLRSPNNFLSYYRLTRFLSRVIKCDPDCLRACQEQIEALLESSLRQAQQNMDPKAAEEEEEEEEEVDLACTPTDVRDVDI
human cyclin B-CDK1, sequence (P06493 whole entry): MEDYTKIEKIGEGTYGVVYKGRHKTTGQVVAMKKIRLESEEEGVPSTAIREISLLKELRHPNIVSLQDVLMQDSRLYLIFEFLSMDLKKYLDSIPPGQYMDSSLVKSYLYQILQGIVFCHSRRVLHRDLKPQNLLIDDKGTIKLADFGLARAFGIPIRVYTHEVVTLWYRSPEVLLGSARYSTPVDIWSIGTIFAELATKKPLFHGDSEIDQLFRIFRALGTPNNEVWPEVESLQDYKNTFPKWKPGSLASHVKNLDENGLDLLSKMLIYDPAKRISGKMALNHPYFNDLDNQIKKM
human cyclin B-CDK1, sequence (P14635 whole entry partner): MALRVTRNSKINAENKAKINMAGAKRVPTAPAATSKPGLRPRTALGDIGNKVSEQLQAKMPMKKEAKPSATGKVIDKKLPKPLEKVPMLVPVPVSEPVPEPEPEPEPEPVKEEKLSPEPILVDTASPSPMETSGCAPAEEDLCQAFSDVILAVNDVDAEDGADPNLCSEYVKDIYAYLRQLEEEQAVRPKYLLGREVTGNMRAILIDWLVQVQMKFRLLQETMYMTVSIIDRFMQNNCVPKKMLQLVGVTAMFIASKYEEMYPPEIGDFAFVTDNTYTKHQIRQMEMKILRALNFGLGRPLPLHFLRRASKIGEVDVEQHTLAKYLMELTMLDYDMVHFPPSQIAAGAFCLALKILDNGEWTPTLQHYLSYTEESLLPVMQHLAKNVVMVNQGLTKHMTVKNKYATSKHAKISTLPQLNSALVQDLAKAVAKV

Turning to `Nc1nc(Nc2ccc(N3CCC(N4CCCC4)CC3)cc2)sc1C(=O)c1ccc(O)cc1` [Example 28, {4-Amino-2-[4-(4-pyrrolidin-1-yl-piperidin-1-yl)-phenylamino]-thiazol-5-yl}-(4-hydroxy-phenyl)-methanone], the IC50 (as a rule, the concentration that gives 50% inhibition) against human cyclin B-CDK1 was 1170 nM; on human cyclin D1-CDK4 (setting [1]), 53 nM; at human cyclin E-CDK2 it was 4180 nM.

Consider `Nc1nc(Nc2ccc(N3CCC(N4CCCCC4)CC3)cc2)sc1C(=O)c1ccc(O)cc1` [Example 29, [4-Amino-2-(4-[1,4′]bipiperidinyl-1′-yl-phenylamino)-thiazol-5-yl]-(4-hydroxy-phenyl)-methanone], for which the half-inhibitory concentration (IC50) on human cyclin B-CDK1 was 1230 nM; on human cyclin D1-CDK4 (setting [1]) it was 55 nM; at human cyclin E-CDK2, 3990 nM.

`COc1ccc(C(=O)c2sc(Nc3ccc(N4CCC(N(C)C)CC4)cc3)nc2N)cc1F` [Example 42, {4-Amino-2-[4-(4-dimethylamino-piperidin-1-yl)-phenylamino]-thiazol-5-yl}-(3-fluoro-4-methoxy-phenyl)-methanone]: the half-inhibitory concentration (IC50) came out at 5790 nM on human cyclin B-CDK1, 86 nM on human cyclin D1-CDK4 (setting [1]) and 5830 nM on human cyclin E-CDK2.

Take `CN(C)C1CCN(c2ccc(Nc3nc(N)c(C(=O)c4ccc(O)cc4)s3)cc2)CC1` [Example 46, {4-Amino-2-[4-(4-dimethylamino-piperidin-1-yl)-phenylamino]-thiazol-5-yl}-(4-hydroxy-phenyl)-methanone]: the IC50 against human cyclin B-CDK1 came out at 3810 nM; on human cyclin D1-CDK4 (setting [1]) it was 55 nM; against human cyclin E-CDK2, 5670 nM.

As for `COc1cccc(C(=O)c2sc(Nc3ccc(N4CCC(N(C)C)CC4)cc3)nc2N)c1[N+](=O)[O-]` [Example 49, {4-Amino-2-[4-(4-dimethylamino-piperidin-1-yl)-phenylamino]-thiazol-5-yl}-(3-methoxy-2-nitro-phenyl)-methanone], the IC50 against human cyclin B-CDK1 was 5 nM; at human cyclin D1-CDK4 (setting [1]) it was 8 nM; against human cyclin E-CDK2, 136 nM.

As for `Nc1nc(Nc2ccc(N3CCC(N4CCCCC4)CC3)cc2)sc1C(=O)c1cc(F)cc(F)c1` [Example 57, [4-Amino-2-(4-[1,4′]bipiperidinyl-1′-yl-phenylamino)-thiazol-5-yl]-(3,5-difluoro-phenyl)-methanone], the IC50 on human cyclin B-CDK1 was found to be 3560 nM; on human cyclin D1-CDK4 (setting [1]) it was 86 nM; against human cyclin E-CDK2, 8030 nM.

For `Nc1nc(Nc2ccc(N3CCC(N4CCCCC4)CC3)cc2)sc1C(=O)c1ccc(F)c(F)c1` [Example 59, [4-Amino-2-(4-[1,4′]bipiperidinyl-1′-yl-phenylamino)-thiazol-5-yl]-(3,4-difluoro-phenyl)-methanone], the half-inhibitory concentration (IC50) is 4630 nM against human cyclin B-CDK1, 61 nM on human cyclin D1-CDK4 (setting [1]) and 3090 nM against human cyclin E-CDK2.

For the compound `Nc1nc(Nc2ccc(N3CCC(N4CCCCC4)CC3)cc2)sc1C(=O)c1ccc(Cl)c([N+](=O)[O-])c1` [Example 62, [4-Amino-2-(4-[1,4′]bipiperidinyl-1′-yl-phenylamino)-thiazol-5-yl]-(4-chloro-3-nitro-phenyl)-methanone], the results for the half-inhibitory concentration (IC50) at human cyclin B-CDK1, on human cyclin D1-CDK4 (setting [1]) and on human cyclin E-CDK2 were 4210 nM, 278 nM and 4170 nM, respectively.

As for `N#Cc1cccc(C(=O)c2sc(Nc3ccc(N4CCC(N5CCCCC5)CC4)cc3)nc2N)c1` [Example 64, 3-[4-Amino-2-(4-[1,4′]bipiperidinyl-1′-yl-phenlamino)-thiazole-5-carbonyl]-benzonitrile], the IC50 came out at 1280 nM on human cyclin B-CDK1, 15 nM on human cyclin D1-CDK4 (setting [1]) and 2700 nM at human cyclin E-CDK2.

Turning to `Nc1nc(Nc2ccc(N3CCC(N4CCCCC4)CC3)cc2)sc1C(=O)c1cccc(O)c1` [Example 65, [4-Amino-2-(4-[1,4′]bipiperidinyl-1′-yl-phenylamino)-thiazol-5-yl]-(3-hydroxy-phenyl)-methanone], the IC50 was 1440 nM against human cyclin B-CDK1, 18 nM on human cyclin D1-CDK4 (setting [1]) and 3390 nM at human cyclin E-CDK2.

For `Nc1nc(Nc2ccc(N3CCC(N4CCCC4)CC3)cc2)sc1C(=O)c1ccc(F)c(F)c1` [Example 68, {4-Amino-2-[4-(4-pyrrolidin-1-yl-piperidin-1-yl)-phenylamino]-thiazol-5-yl}-(3,4-difluoro-phenyl)-methanone], the concentration for half-maximal inhibition (IC50) turned out to be 3850 nM against human cyclin B-CDK1, 89 nM at human cyclin D1-CDK4 (setting [1]) and 5950 nM against human cyclin E-CDK2.

As for `Nc1nc(Nc2ccc(N3CCC(N4CCCC4)CC3)cc2)sc1C(=O)c1ccc(Cl)c(Cl)c1` [Example 69], the concentration for half-maximal inhibition (IC50) on human cyclin B-CDK1 was 6230 nM; on human cyclin D1-CDK4 (setting [1]) it was 102 nM; against human cyclin E-CDK2, 5620 nM.

As for `Nc1nc(Nc2ccc(N3CCC(N4CCCC4)CC3)cc2)sc1C(=O)c1ccc(Cl)c([N+](=O)[O-])c1` [Example 71, {4-Amino-2-[4-(4-pyrrolidin-1-yl-piperidin-1-yl)-phenylamino]-thiazol-5-yl}-(4-chloro-3-nitro-phenyl)-methanone], the values for the IC50 on human cyclin B-CDK1, at human cyclin D1-CDK4 (setting [1]) and against human cyclin E-CDK2 were 4060 nM, 162 nM and 4150 nM, respectively.

With `Nc1nc(Nc2ccc(N3CCC(N4CCCC(O)C4)CC3)cc2)sc1C(=O)c1cc(F)cc(F)c1` (centres unmarked) [Example 73, {4-Amino-2-[4-(3-hydroxy-[1,4′]bipiperidinyl-1′-yl)-phenylamino]-thiazol-5-yl}-(3,5-difluoro-phenyl)-methanone], the figures for the IC50 against human cyclin B-CDK1, on human cyclin D1-CDK4 (setting [1]) and against human cyclin E-CDK2 were 2590 nM, 88 nM and 8050 nM, respectively.

As for `Nc1nc(Nc2ccc(N3CCC(N4CCCC(O)C4)CC3)cc2)sc1C(=O)c1ccc(F)c(F)c1` (centres unmarked) [Example 75, {4-Amino-2-[4-(3-hydroxy-[1,4′]bipiperidinyl-1′-yl)-phenylamino]-thiazol-5-yl}-(3,4-difluoro-phenyl)-methanone], the values for the IC50 against human cyclin B-CDK1, on human cyclin D1-CDK4 (setting [1]) and at human cyclin E-CDK2 were 4050 nM, 58 nM and 8680 nM, respectively.

As for `Nc1nc(Nc2ccc(N3CCC(N4CCCC(O)C4)CC3)cc2)sc1C(=O)c1ccc(Cl)c(Cl)c1` (centres unmarked) [Example 76, {4-Amino-2-[4-(3-hydroxy-[1,4′]bipiperidinyl-1′-yl)-phenylamino]-thiazol-5-yl}-(3,4-dichloro-phenyl)-methanone], the results for the IC50 on human cyclin D1-CDK4 (setting [1]) and against human cyclin E-CDK2 were 124 nM and 8760 nM, respectively.

`COc1ccc(C(=O)c2sc(Nc3ccc(N4CCC(N5CCOCC5)CC4)cc3)nc2N)cc1F` [Example 100, {4-Amino-2-[4-(4-morpholin-4-yl-piperidin-1-yl)-phenylamino]-thiazol-5-yl}-(3-fluoro-4-methoxy-phenyl)-methanone]: the IC50 at human cyclin B-CDK1 amounted to 4170 nM; against human cyclin D1-CDK4, 90 nM.

In the case of `Nc1nc(Nc2ccc(N3CCC(N4CCOCC4)CC3)cc2)sc1C(=O)c1ccc2c(c1)OCO2` [Example 101, {4-Amino-2-[4-(4-morpholin-4-yl-piperidin-1-yl)-phenylamino]-thiazol-5-yl}-benzo[1,3]dioxol-5-yl-methanone], the IC50 stood at 580 nM at human cyclin B-CDK1 and 25 nM on human cyclin D1-CDK4 (setting [1]).

For the compound `Cc1cccc(C(=O)c2sc(Nc3ccc(N4CCC(N5CCCC5)CC4)cc3)nc2N)c1` [Example 109, {4-Amino-2-[4-(4-pyrrolidin-1-yl-piperidin-1-yl)-phenylamino]-thiazol-5-yl}-tolyl-methanone], the figures for the IC50 against human cyclin B-CDK1 and at human cyclin D1-CDK4 (setting [1]) were 770 nM and 14 nM, respectively.
